The source of these data is patent publication US4322351A (priority 1980, dated 1982).

Structures can show the parent of a compound that is named as a salt.

Data set [1] relates to Chinese hamster ovary cells. Kind of data set: standard mitotic inhibition test employing Chinese hamster ovary cells. It counts as cell-based. The source says:
The compounds of this invention are antimitotic compounds which adversely affects the growth of malignant cells. This activity is manifested in a standard mitotic inhibition test employing Chinese hamster ovary cells.

A further data set concerns 755 adenocarcinoma. Kind of data set: transplanted tumors in mice: 755 adenocarcinoma. The settings on record: intraperitoneal. It counts as in vivo. Here is the method:
(§1) The bases of this invention and their salts preparable by the processes disclosed herein are active in vivo against transplanted tumors in mice.
(§2) The following table--Table 1--gives the results of experiments in which mice bearing the susceptible transplanted tumor were treated with a compound of this invention. In the table, column 1 gives the name of the compound; column 2, the tumor used; column 3 the dosage; and column 4, the percent inhibition of tumor growth (I) or prolongation of life (PL). The following dosage regimens were employed: every day for 7 or 10 days after tumor inoculation; or every fourth day (three doses) starting at the third day after tumor inoculation.

The subject of a further data set is P1534(J). Kind of data set: transplanted tumors in mice: P1534(J) leukemia. It counts as in vivo. The settings on record: intraperitoneal. Here is the method: as §1
The following table--Table 1--gives the results of experiments in which mice bearing the susceptible transplanted tumor were treated with a compound of this invention. In the table, column 1 gives the name of the compound; column 2, the tumor used; column 3 the dosage; and column 4, the percent inhibition of tumor growth (I) or prolongation of life (PL). […]

The test system of the next data set is P388/V leukemia. Kind of data set: transplanted tumors in mice: P388/V leukemia. The conditions noted are these: dose and regimen not given, intraperitoneal. The data set is classed as in vivo. Here is the method:
as §1, §2

For the next data set, the system named is B16 melanoma. Kind of data set: transplanted tumors in mice: B16 melanoma. The data set is classed as in vivo. The settings on record: intraperitoneal; for percent Prolongation of life (PL): * = 1 or more indefinite survivors. Here is the method: as §1, §2
The next data set has as its system tumor. The conditions noted are these: background, U.S. Pat. No. 4,166,810 and Conrad et al.; cited from earlier work.

4'-Acetylamino VLB: the mitotic index entry in data set [1] (2.0×10^-2 mcg/ml) was “+ (15-25% inhibition)”.

As for `CCC1(NC(C)=O)C[C@@H]2CN(CCc3c([nH]c4ccccc34)[C@@](C(=O)OC)(c3cc4c(cc3OC)N(C)[C@H]3[C@@](O)(C(=O)OC)[C@H](OC(C)=O)[C@]5(CC)C=CCN6CC[C@]43[C@@H]65)C2)C1` (some centres unmarked) [4'-acetylamino VLB sulfate], the “Percent Inhibition (I) of tumor growth” value in the data set on 755 adenocarcinoma (10 days, 1 mg/kg) is given as 18%; in the data set with 755 adenocarcinoma (10 days, .5 mg/kg), 30%; with 755 adenocarcinoma (10 days, .75 mg/kg), 29%; with 755 adenocarcinoma (11 days, 3 mg/kg), 57%; in the data set on 755 adenocarcinoma (11 days, .5 mg/kg), 33%; in the data set with P1534(J) (every third day, 5.0 mg/kg), 42%. Moreover, the “Percent Inhibition (I) of tumor growth” value in the data set on P1534(J) (every third day, 7.5 mg/kg) was 71%. In the data set with 755 adenocarcinoma (11 days, 6 mg/kg), the “Percent Inhibition (I) or Prolongation (PL) column: toxicity” value is given as “Toxic”. Also, the indefinite survivors result in the data set on P388/V leukemia is given as “* (1 or more indefinite survivors)”; with B16 melanoma (3 days, 1.5 mg/kg), “* (1 or more indefinite survivors)”; in the data set on B16 melanoma (3 days, 3 mg/kg) it was “* (1 or more indefinite survivors)”; in the data set with B16 melanoma (.75 mg/kg), “* (1 or more indefinite survivors)”. For the same compound, the “percent Prolongation of life (PL)” value is 20% in the data set with P388/V leukemia (* = 1 or more indefinite survivors); 120% in the data set with B16 melanoma (3 days, 1.5 mg/kg); 74-201% in the data set with B16 melanoma (3 days, 3 mg/kg); 119% in the data set with B16 melanoma (.75 mg/kg).

With `CCC1(NC(C)=O)C[C@@H]2CN(CCc3c([nH]c4ccccc34)[C@@](C(=O)OC)(c3cc4c(cc3OC)N(C)[C@H]3[C@@](O)(C(=O)OC)[C@H](O)[C@]5(CC)C=CCN6CC[C@]43[C@@H]65)C2)C1` (some centres unmarked) [4'-acetylamino-4-desacetyl VLB], in data set [1] (Cricetulus griseus, CHO, read-out: mitotic index), the inhibition at 2 µg/mL was in the range of 25 to 50%. Moreover, the “Percent Inhibition (I) of tumor growth” value with P1534(J) (9.5-1.0 mg/kg) is recorded as 2-11%; in the data set on B16 melanoma (10 1.0 (regimen and dose mg/kg)), 58%; with B16 melanoma (.5 mg/kg), 23%; in the data set on B16 melanoma (.75 mg/kg), 44%.

Regarding `CC[C@]1(O)C[C@@H]2CN(CCc3c([nH]c4ccccc34)[C@@](C(=O)OC)(c3cc4c(cc3OC)N(C)[C@H]3[C@@](O)(C(N)=O)[C@H](O)[C@]5(CC)C=CCN6CC[C@]43[C@@H]65)C2)C1` [vindesine, 4-desacetyl VLB C-3 carboxamide], the anti-tumor activity entry with tumor is on record as “very active”.
